Active and inactive are the calls of the source. The rule behind the calls is not given here.
Experiments:
[1] = species: Mus musculus; test: Inhibition of Gbetagamma-GRK2 interaction in mouse cardiomyocytes assessed as increase in contractility; assay type: cell-based
[2] = tested on: CHO; test: Reduction of DPDPE-mediated total inositol phosphate production in CHO cells expressing human mu opioid receptor at 10 uM after 30 mins by scintillation counting analysis in presence of [3H]inositol; assay type: functional, cell-based; conditions: Cricetulus griseus
[3] = tested on: Neutrophil; test: Antiinflammatory activity in primary human neutrophils assessed as inhibition of fMLP-stimulated chemotaxis at 10 uM after 1 hr by Boyden chamber method; assay type: functional, cell-based
[4] = Reduction of membrane associated GRK2 level in mouse cardiomyocytes; assay type: ADME, cell-based; conditions: cardiomyocyte
[5] = Effect on differentiated human HL60 cell motility at 10 uM after 1 hr by Boyden chamber method; assay type: ADME, cell-based; conditions: hl-60, 1 h
[6] = tested on: Mus musculus; test: Improvement of cardiac dysfunction in cardiac-specific calsequestrin mouse with dilated cardiomyopathy at 100 mg/kg, ip qd; assay type: functional, organism-based; conditions: Heart
[7] = target: Mu-type opioid receptor (Homo sapiens) (UniProt P35372); test: Inhibition of human Gbetagamma-dependent mu opioid receptor-mediated PLC activation expressed in CHO cells assessed as reduction of morphine-mediated total inositol phosphate production at 10 uM after 30 mins by scintillation counting analysis in presence of [3H]inositol; assay type: functional, cell-based
Sequence of Mu-type opioid receptor (Homo sapiens) (P35372 whole entry): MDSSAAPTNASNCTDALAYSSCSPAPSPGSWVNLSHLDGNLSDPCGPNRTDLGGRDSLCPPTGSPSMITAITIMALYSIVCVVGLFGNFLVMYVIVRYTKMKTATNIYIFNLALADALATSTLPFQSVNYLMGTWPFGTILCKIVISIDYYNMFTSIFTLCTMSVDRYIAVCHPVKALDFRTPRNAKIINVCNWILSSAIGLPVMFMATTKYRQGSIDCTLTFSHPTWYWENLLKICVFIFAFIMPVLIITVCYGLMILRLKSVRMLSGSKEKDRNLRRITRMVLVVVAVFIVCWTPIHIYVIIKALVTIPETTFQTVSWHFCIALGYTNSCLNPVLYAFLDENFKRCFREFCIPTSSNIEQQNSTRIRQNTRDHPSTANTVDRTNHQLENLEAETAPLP

[8] = tested on: Mus musculus; test: Toxicity in C57/B16 mouse assessed as overt toxic effect at 250 mg/kg/day administered for 2 weeks; assay type: organism-based; conditions: in vivo, 336 h
[9] = tested on: Mus musculus; test: Increase in survival of cardiac-specific calsequestrin mouse with dilated cardiomyopathy at 100 mg/kg, ip qd in presence of beta adrenergic receptor blocker metoprolol; assay type: functional, organism-based; conditions: Heart
[10] = tested on: Mus musculus; test: Potentiation of morphine-induced antinociceptive activity in PLCbeta3-deficient ICR mouse at 100 nmol, icv after 20 mins by tail flick test; assay type: functional, organism-based
[11] = tested on: HL-60; test: Binding affinity to Gbetagamma in human HL60 cells assessed as inhibition of fMLP-stimulated Ca2+ release at 10 uM incubated for 5 mins prior to fMLP stimulation by Fura2-AM dye-based assay; assay type: cell-based
[12] = species: Mus musculus; test: Inhibition of Gbetagamma-GRK2 interaction in mouse cardiomyocytes assessed as increase in isoproterenol-induced contractility; assay type: cell-based
[13] = tested on: Mus musculus; test: Downregulation of GRK2 expression in […] mouse acute model of heart failure at 100 mg/kg, ip qd administered for 7 days by immunoblot analysis; assay type: functional, organism-based
[14] = target: Delta-type opioid receptor (Homo sapiens) (UniProt P41143); test: Inhibition of human Gbetagamma-dependent delta opioid receptor-mediated PLC activation expressed in CHO cells assessed as reduction of DPDPE-mediated total inositol phosphate production at 10 uM after 30 mins by scintillation counting analysis in presence of [3H]inositol; assay type: functional, cell-based
Sequence of Delta-type opioid receptor (Homo sapiens) (P41143 whole entry): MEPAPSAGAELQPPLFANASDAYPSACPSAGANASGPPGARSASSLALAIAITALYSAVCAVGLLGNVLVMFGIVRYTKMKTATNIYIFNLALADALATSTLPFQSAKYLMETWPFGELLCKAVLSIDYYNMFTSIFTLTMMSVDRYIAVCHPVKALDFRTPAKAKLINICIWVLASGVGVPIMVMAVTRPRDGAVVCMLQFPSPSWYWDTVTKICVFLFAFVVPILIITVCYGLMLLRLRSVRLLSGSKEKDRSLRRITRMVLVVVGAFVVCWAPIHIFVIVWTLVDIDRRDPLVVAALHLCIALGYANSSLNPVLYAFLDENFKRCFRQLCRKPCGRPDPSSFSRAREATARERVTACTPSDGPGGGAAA

[15] = tested on: HL-60; test: Binding affinity to Gbetagamma in human HL60 cells assessed as inhibition of fMLP-stimulated GFP-PHAkt translocation to plasma membrane at 10 uM incubated for 5 mins prior to fMLP stimulation by Western blot analysis; assay type: cell-based
[16] = target: T1, Guanine nucleotide-binding protein G(I)/G(S)/G(T) subunit beta-1/gamma-2 (Homo sapiens, UniProt P62873+P59768); test: Inhibition of biotinylated Gbeta1gamma2 (unknown origin) binding to PLCbeta2 at 10 uM incubated for 16 hrs; assay type: protein-complex assay
T1 sequence (P59768 2-71 partner limits assumed): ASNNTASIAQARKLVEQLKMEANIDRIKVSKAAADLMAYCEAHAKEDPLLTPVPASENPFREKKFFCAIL
T1 sequence (P62873 2-340 limits assumed): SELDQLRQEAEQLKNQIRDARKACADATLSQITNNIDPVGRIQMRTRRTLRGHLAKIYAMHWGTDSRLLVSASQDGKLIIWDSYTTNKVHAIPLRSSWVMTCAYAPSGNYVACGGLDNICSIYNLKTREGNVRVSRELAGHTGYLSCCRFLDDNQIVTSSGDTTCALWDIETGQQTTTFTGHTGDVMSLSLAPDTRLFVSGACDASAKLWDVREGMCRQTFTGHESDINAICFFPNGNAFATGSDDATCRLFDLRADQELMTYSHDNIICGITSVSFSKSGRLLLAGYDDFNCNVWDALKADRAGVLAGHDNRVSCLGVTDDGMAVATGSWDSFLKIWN

[17] = tested on: CHO; test: Reduction of U50,488-mediated total inositol phosphate production in CHO cells expressing human mu opioid receptor at 10 uM after 30 mins by scintillation counting analysis in presence of [3H]inositol; assay type: functional, cell-based; conditions: Cricetulus griseus
[18] = tested on: HL-60; test: Effect on fMLP-stimulated ERK1/2 phosphorylation in human HL60 cells at 10 uM incubated for 5 mins prior to fMLP stimulation by Western blot analysis; assay type: functional, cell-based
[19] = tested on: Mus musculus; test: Antinociceptive activity in ICR mouse at 100 nmol, icv after 20 mins by tail flick test relative to control; assay type: functional, organism-based
[20] = species: Mus musculus; test: Inhibition of Gbetagamma-GRK2 interaction in mouse cardiomyocytes assessed as increase in contractility in presence of beta adrenergic receptor antagonist propranolol; assay type: cell-based
[21] = tested on: CHO; test: Effect on total inositol phosphate production in CHO cells expressing human mu opioid receptor at 10 uM after 30 mins by scintillation counting analysis in presence of [3H]inositol; assay type: ADME, cell-based, Cricetulus griseus; conditions: chinese hamster, 0.5 h
[22] = target: Mu-type opioid receptor (Homo sapiens) (UniProt P35372); test: Inhibition of human Gbetagamma-dependent mu opioid receptor-mediated PLC activation expressed in CHO cells assessed as reduction of DAMGO-mediated total inositol phosphate production at 10 uM after 30 mins by scintillation counting analysis in presence of [3H]inositol; assay type: functional, cell-based
[23] = target: T1, Guanine nucleotide-binding protein G(I)/G(S)/G(T) subunit beta-1/gamma-2; test: Inhibition of biotinylated Gbeta1gamma2 (unknown origin) binding to PLCbeta3 at 10 uM incubated for 16 hrs; assay type: protein-complex assay
[24] = species: Mus musculus; test: Inhibition of Gbetagamma-mediated GRK2 recruitment in mouse cardiomyocytes assessed as cAMP generation at 10 uM treated for 5 mins; assay type: functional, cell-based
[25] = tested on: Neutrophil; test: Antiinflammatory activity in primary human neutrophils assessed as inhibition of IL8-stimulated chemotaxis at 10 uM after 1 hr by Boyden chamber method; assay type: functional, cell-based
[26] = tested on: Mus musculus; test: Improvement of cardiac dysfunction in cardiac-specific calsequestrin mouse with dilated cardiomyopathy at 100 mg/kg, ip qd in presence of beta adrenergic receptor blocker metoprolol; assay type: functional, organism-based; conditions: Heart
[27] = tested on: Mus musculus; test: Inhibition of isoproterenol-mediated interstitial cardiac fibrosis in C57/B16 mouse acute model of heart failure at 100 mg/kg, ip qd administered for 7 days by post-mortem test; assay type: functional, organism-based
[28] = tested on: HEK293; test: Effect on carbachol-dependent Ca2+ release in HEK293 cells expressing M3 muscarinic receptor at 10 uM; assay type: functional, cell-based; conditions: Homo sapiens
[29] = species: Mus musculus; test: Inhibition of Gbetagamma-mediated GRK2 recruitment in mouse cardiomyocytes assessed as isoproterenol-induced cAMP generation at 10 uM pretreated for 5 mins followed by isoproterenol induction measured after 15 mins; assay type: functional, cell-based
[30] = species: Mus musculus; test: Inhibition of Gbetagamma in mouse cardiomyocytes assessed as reduction of agonist-stimulated beta adrenergic receptor-mediated GRK2 recruitment to membrane; assay type: cell-based
[31] = tested on: HL-60; test: Antiinflammatory activity in differentiated human HL60 cells assessed as inhibition of fMLP-stimulated chemotaxis by transwell assay; assay type: functional, cell-based
[32] = species: Mus musculus; test: Inhibition of Gbetagamma-GRK2 interaction in mouse cardiomyocytes assessed as increase in isoproterenol-induced contractility in presence of beta adrenergic receptor antagonist propranolol; assay type: cell-based
[33] = tested on: HL-60; test: Binding affinity to Gbetagamma in differentiated human HL60 cells assessed as inhibition of fMLP-stimulated superoxide production at 10 uM preincubated for 10 mins followed by nitro blue tetrazolium addition for 5 mins and fMLP addition for 30 mins by NADPH oxidase assay; assay type: cell-based
[34] = tested on: HL-60; test: Antiinflammatory activity in differentiated human HL60 cells assessed as inhibition of fMLP-stimulated cell migration at 10 uM after 1 hr by Boyden chamber method; assay type: functional, cell-based
[35] = tested on: Neutrophil; test: Antiinflammatory activity in primary human neutrophils assessed as inhibition of GM-CSF-stimulated chemotaxis at 1 uM after 1 hr by Boyden chamber method; assay type: functional, cell-based
[36] = target: Delta-type opioid receptor (Homo sapiens) (UniProt P41143); test: Inhibition of human Gbetagamma-dependent delta opioid receptor-mediated PLC activation expressed in CHO cells assessed as reduction of Deltorphin 2-mediated total inositol phosphate production at 10 uM after 30 mins by scintillation counting analysis in presence of [3H]inositol; assay type: functional, cell-based
[37] = tested on: HL-60; test: Binding affinity to Gbetagamma in differentiated human HL60 cells assessed as inhibition of fMLP-stimulated Rac1 activation at 10 uM preincubated for 10 mins followed by fMLP challenge for 90 secs by Western blot analysis; assay type: cell-based
[38] = tested on: Mus musculus; test: Inhibition of isoproterenol-mediated decrease in cardiac function in C57/B16 mouse acute model of heart failure at 100 mg/kg, ip qd administered for 7 days by conscious echocardiography; assay type: functional, organism-based
[39] = tested on: Mus musculus; test: Potentiation of morphine-induced antinociceptive activity in ICR mouse assessed as morphine ED50 at 100 mg/kg, ip after 20 mins by tail flick test (reference value: 5 mg/kg); assay type: functional
[40] = tested on: HL-60; test: Binding affinity to Gbetagamma in human HL60 cells assessed as inhibition of fMLP-stimulated GRK2 translocation at 10 uM incubated for 5 mins prior to fMLP stimulation by Western blot analysis; assay type: cell-based
[41] = tested on: Mus musculus; test: Toxicity in C57/B16 mouse assessed as effect on cardiac morphology at 100 mg/kg, ip qd administered for 7 days by post-mortem test; assay type: organism-based; conditions: in vivo, 168 h
[42] = tested on: CHO; test: Inhibition of human Gbetagamma-dependent kappa opioid receptor-mediated PLC activation expressed in CHO cells assessed as reduction of U50,488-mediated total inositol phosphate production at 10 uM after 30 mins by scintillation counting analysis in presence of [3H]inositol; assay type: cell-based
[43] = tested on: Mus musculus; test: Toxicity in C57/B16 mouse assessed as effect on cardiac function at 100 mg/kg, ip qd administered for 7 days by conscious echocardiography; assay type: organism-based; conditions: in vivo, 168 h
[44] = tested on: Mus musculus; test: Increase in survival of cardiac-specific calsequestrin mouse with dilated cardiomyopathy at 100 mg/kg, ip qd; assay type: functional, organism-based; conditions: Heart
[45] = tested on: Mus musculus; test: Inhibition of isoproterenol-mediated decrease in cardiac morphology in C57/B16 mouse acute model of heart failure at 100 mg/kg, ip qd administered for 7 days by post-mortem test; assay type: functional, organism-based

With `O=C(O)C1CCCCC1c1c2ccc(=O)c(O)c-2oc2c(O)c(O)ccc12` (stereo not given) the inhibition [1] was “Active”, the Activity [2] was “inactive” and the inhibition [3] was “Active”. The Activity [4] was “Non-toxic”, the Activity [5] was “Non-toxic” and the Activity [6] was “Active”. The inhibition [7] was “Active”, the Activity [8] was “Non-toxic” and the Activity [9] was “Active”. The Activity [10] was “inactive”, the inhibition [11] was “Active” and the inhibition [12] was “Active”. The Activity [13] was “Active”, the inhibition [14] was “inactive” and the inhibition [15] was “Active”. For the same molecule, the inhibition [16] was “Active”, the Activity [17] was “inactive” and the Activity [18] was “inactive”. For the same molecule, the Activity [19] was “inactive”, the inhibition [20] was “inactive” and the Activity [21] was “Non-toxic”. The inhibition [22] was “Active”, the inhibition [23] was “Active” and the inhibition [24] was “Active”. For the same molecule, the inhibition [25] was “Active”, the Activity [26] was “Active” and the inhibition [27] was “Active”. The Activity [28] was “inactive”, the inhibition [29] was “Active” and the inhibition [30] was “Active”. The inhibition [31] was “inactive”, the inhibition [32] was “inactive” and the inhibition [33] was “Active”. The inhibition [34] was “Active”, the inhibition [35] was “inactive” and the inhibition [36] was “inactive”. The inhibition [37] was “Active”, the inhibition [38] was “Active” and the ED50 [39] was 1.3 mg/kg. The inhibition [40] was “Active”, the Activity [41] was “Non-toxic” and the inhibition [42] was “inactive”. The Activity [43] was “Non-toxic”, the Activity [44] was “Active” and the inhibition [45] was “Active”.
